Measured values as given in patent US20210113685A1, “POLYPEPTIDE DRUG AGAINST HEPATITIS B VIRUS PROTEIN” (priority 2011, published 2021).
Where no end group is shown, it is not given here.

How the values were obtained:
[1] = test system: HepG2.2.15 cells; experiment: Inoculation experiment in nude mice, HepG2.2.15 cells; type: in vivo
Description: (§1) Suspended the HepG2-X or HepG2.2.15 cells at exponential phase by treating with trypsin, and counted the number of cells to dilute to 1×10^7 cells/ml with physiological saline, and then store in the ice water. 12 Mice used were 4- to 6-week-old BALB/C females, and were randomly divided into two groups: @Control group, injected 0.2 ml diluted cells to the armpit of left forelimb for each mouse, and only injected 0.5 ml ddH2O (without polypeptide drugs); 0 experimental group (the treatment dose was 10 mg/kg), injected 0.2 ml diluted cells to the armpit of left forelimb for each mouse, and within 7 days after the injection, tumor volume (V=L×W^2×0.5) reached to 100 mm^3. And then, injected the above mentioned polypeptide drugs (dried polypeptide drug solved in 0.5 ml ddH2O) once in two day, total 10 times, and recorded the tumor volume before injection. Within 24 hr after the last dose, weighted the mice, and killed the mice to weight the tumor tissue, anti-tumor rate was calculated as follow: […]

[2] = test system: NF-κB promoter (HBx-activated); experiment: Dual-luciferase reporter gene analysis (pGL3-NF-κB); type: cell-based; conditions: incubation with synthesized polypeptide 0.1-100 μM, 24 hr
Excerpt: (§2) Two cell lines were adopted in the experiment. One is constitutive expression HBx of hepatoma cell HepG2 (stable transfected hepatoma cell HepG2 expressing HBx), and the other one is constitutive expression Hepatitis B virus complete genome of hepatoma cell HepG2.2.15 (stable transfected hepatoma cell HepG2 expressing HBV complete genome). Because HBx functions to activate the transcription factor NF-κB, it is possible to detect the inhibition of HBx at the molecular level by reporter gene-based assays. Due to the role of HBx on promoting the growth and proliferation of hepatoma cells, it can test the effects of the polypeptides on the proliferation of HepG2-X cell and HepG2.2.15 cell by (3-(4,5-dimethylthiazol-2-yl)-2,5-diphenyltetrazolium bromide (MTT).
(1) Plated the cells at exponential phase (the cells in the above Table 1) at a density 0.75×10^5 cells/ml in a 24-well plate with 500 μl per well. Ideally cells should be 90% confluent prior to transfection;
(2) Reporter gene vectors containing promoter (pGL3-NF-κB, 0.3 μg, purchased from Yuanhaoping (Tianjin) Biological Technology Co., Ltd) were transfected into cells by using lipofectamine transfection reagent, and Renilla luciferase expressing vectors (pRL-TK, 0.1 μg, purchased from Promega) were transfected as controls. Simultaneously, different amount of polypeptides plasmids from Step A (0.25 μg, 0.5 μg and 0.75 μg) or different concentrations of synthesized polypeptides from Example 1 (0.1 μM, 1 μM, 10 μM and 100 μM) were added, and repeated each concentration in three wells;
(3) After transfection for 48 hr (or after incubation with artificial synthesized polypeptide Anti-HBxP1 # for 24 hr), washed the cells with PBS for three times;
(4) Added 100 μl 1× Passive Lysis Buffer (PLB) into transfected cells per well, and lysed the cell at room temperature for 15 min. Transferred the cell lysate to a 1.5 ml Eppendorf (EP) tube;
(5) Centrifuged at 12,000 rpm for 30 min, and transferred the supernatant to a fresh EP tube;
(6) Added an aliquot of cell lysate into each EP tube with 100 μl Luciferase Assay Buffer II (LARII), and mixed well;
(7) Immediately put the EP tubes into a Luminometer (manufactured by Turner Biosystems). Within 10 sec after 2 sec balance, measured the luminescence.
(8) Added 100 μl fluorescence bleacher. Firefly luciferase was quenched, while Renilla luciferase started to react.
(9) Measured the luminescence within 10 sec.
The relative activity was the ratio of the value of the first luminescence to the value of the second luminescence.
Results shown are representative of three independent experiments according to Mean±SD, and statistical significance was calculated using Student's t test.

[3] = test system: HepG2; experiment: MTT assay, HepG2 cells; type: cell-based; conditions: HepG2 (no HBx); synthesized polypeptide 0.1-100 μM, 48 hr
Description: (§3) (1) Plate the cells: suspended the cells at exponential phase (the cells in the above Table 1) in RPMI1640 or DMEM medium with 10% FBS, and plated 4000-5000 cells in a 96-well plate with 100 μl per well; Culture the cells: Within 12 hr for adhesion of cultured cells, different amount of polypeptides plasmids from Step A (0.25 μg, 0.5 μg and 0.75 μg) or different concentrations of synthesized polypeptides from Example 1 (0.1 μM, 1 μM, 10 μM and 100 μM) were transfected with 8 wells for each concentration, and were incubated for 48 hr in the same condition. 0.3 μg pEGFP-C2 plasmids and 1 μg p-Anti-HBxP1 # were cotransfected, and using a fluorescence microscope to check for cells containing the GFP plasmid after 24 hr to make sure the percentage of cells that contain GFP is over 70%;
(§4) (2) Coloration: added 20 μl MTT solution (5 mg/ml MTT in PBS buffer (pH7.4)) for each well;
(§5) (3) Incubated for 4 hr, and carefully aspirate off the supernatant from the wells. Added 150 μl DMSO into each well, shaking for 10 min until the crystals dissolved;
(§6) (4) Comparison: Read in an ELISA reader at 490 nm to measure the absorbance for each well. Results were calculated by using Student's t-test.

[4] = test system: L-O2-X cells; experiment: MTT assay, L-O2-X cells; type: cell-based; conditions: synthesized polypeptide 0.1-100 μM, 48 hr
Description: as §3, §4, §5, §6

[5] = test system: HepG2.2.15 cells; experiment: MTT assay, HepG2.2.15 cells; type: cell-based; conditions: synthesized polypeptide 0.1-100 μM, 48 hr
Excerpt: as §2, with “Due to the role of HBx on promoting the growth and proliferation of hepatoma cells, it can test the effects of the polypeptides on the proliferation of HepG2-X cell and HepG2.2.15 cell by (3-(4,5-dimethylthiazol-2-yl)-2,5-diphenyltetrazolium bromide (MTT).” left out
as §3, with “70%; […]” for “70%;”
(§7) (4) Comparison: Read in an ELISA reader at 490 nm to measure the absorbance for each well. […]

[6] = Polypeptide drugs acute toxicity test; type: in vivo, Kunming white mice; conditions: 1 g/kg tail intravenous injection; observed 24 hr
Description: Control group and experimental group contained 10 Kunming white mice, with 5 females and 5 males, respectively. Experimental group injected Anti-HBxP1 # with the concentration of 1 g/kg ([…] dried polypeptide drug solved in 0.124 ml ddH2O) by tail intravenous injection; control group, injected 0.25 ml ddH2O. Consecutively observed the mice for 24 hr after injection.

[7] = test system: HepG2-X cells; experiment: MTT assay, HepG2-X cells; type: cell-based; conditions: synthesized polypeptide 0.1-100 μM, 48 hr
Excerpt: as §2, with “Due to the role of HBx on promoting the growth and proliferation of hepatoma cells, it can test the effects of the polypeptides on the proliferation of HepG2-X cell and HepG2.2.15 cell by (3-(4,5-dimethylthiazol-2-yl)-2,5-diphenyltetrazolium bromide (MTT).” left out
as §3, with “70%; […]” for “70%;”
as §7

[8] = test system: HepG2-X cells; experiment: Inoculation experiment in nude mice, HepG2-X cells; type: in vivo
Description: as §1

[9] = test system: L-O2; experiment: MTT assay, L-O2 cells; type: cell-based; conditions: L-O2 (no HBx); synthesized polypeptide 0.1-100 μM, 48 hr
Description: as §3, §4, §5, §6

Sequence: GSAVMFSSKERG [Anti-HBxP1 #]
- growth and proliferation of HepG2.2.15 cells in nude mice ([1]; 10 mg/kg, P<0.01): inhibits
- Anti-tumor rate (%) ([1]; HepG2.2.15 tumor, 10 mg/kg once in two day, 10 times): 41.27%
- Tumor weight (X ± S, g) ([1]; HepG2.2.15 tumor, 10 mg/kg once in two day, 10 times, within 24 hr after last dose): 0.37 ± 0.19 g
- Weight (X ± S, g) After dose ([1]; mouse body weight after 10 mg/kg once in two day, 10 times, HepG2.2.15 tumor): 21.08 ± 0.81 g
- Weight (X ± S, g) Before dose ([1]; mouse body weight before dose, HepG2.2.15 tumor, experimental group): 15.17 ± 1.17 g
- activity of NF-κB promoter ([2]; HepG2 (no HBx)): no effect
- activity of NF-κB promoter ([2]; HepG2-X cells): inhibits
- activity of NF-κB promoter ([2]; HepG2.2.15 cells): inhibits
- activity of NF-κB promoter ([2]; L-O2 (no HBx)): no effect
- activity of NF-κB promoter ([2]; L-O2-X cells): inhibits
- growth of the hepatoma cells (MTT assay) [3]: no effect
- growth of the hepatoma cells (MTT assay) [4]: inhibits
- growth of the hepatoma cells (MTT assay) [5]: inhibits
- behaviors of mice (acute toxicity) [6]: do not have abnormal behaviors
- changes in weight compared with control group (acute toxicity) [6]: no abnormal changes in weight
- growth of the hepatoma cells (MTT assay) [7]: inhibits
- growth and proliferation of HepG2-X cells in nude mice ([8]; 10 mg/kg, P<0.01): inhibits
- Anti-tumor rate (%) ([8]; HepG2-X tumor, 10 mg/kg once in two day, 10 times): 60.22%
- Tumor weight (X ± S, g) ([8]; HepG2-X tumor, 10 mg/kg once in two day, 10 times, within 24 hr after last dose): 0.37 ± 0.14 g
- Weight (X ± S, g) After dose ([8]; mouse body weight after 10 mg/kg once in two day, 10 times, HepG2-X tumor): 21.08 ± 0.74 g
- Weight (X ± S, g) Before dose ([8]; mouse body weight before dose, HepG2-X tumor, experimental group): 15.75 ± 0.99 g
- growth of the hepatoma cells (MTT assay) [9]: no effect
